In patent US20080207685A1, “Heterocyclic Compounds As Modulators Of Peroxisome Proliferator Activated Receptors, Useful For The Treatment And/Or Prevention Of Disorders Modulated By A Ppar” (Eli Lilly And Company, priority 2003, published 2008):

System: HuapoAI transgenic mice
Assay: Evaluation of triglyceride and cholesterol level in HuapoAI transgenic mice
Type: in vivo
Details: 100 mg/kg oral gavage daily for 7 days; vehicle about 140 to 180 mg/dl
Procedure: Five to six week old male mice, transgenic for human apoAI [C57B1/6-tgn(apoa1)1rub, Jackson Laboratory, Bar Harbor, Me.] are housed five per cage (10″×20″×8″ with aspen chip bedding) with food (Purina 5001) and water available at all times. After an acclimation period of 2 weeks, animals are individually identified by ear notches, weighed and assigned to groups based on body weight. Beginning the following morning, mice are dosed daily by oral gavage for 7 days using a 20 gauge, 1½″ curved disposable feeding needle. Treatments are test compounds (30 mg/kg), a positive control (fenofibrate, 100 mg/kg) or vehicle [1% carboxymethylcellulose (w/v)/0.25% Tween80 (w/v); 0.2 ml/mouse]. […]
The animals dosed with vehicle have average triglycerides values of about 60 to 80 mg/dl, which are reduced by the positive control fenofibrate (33-58 mg/dl with a mean reduction of 37%). […] Test compounds evaluated in terms of percent increase in the area under the curve. […]
Glucose is measured […] by using commercially purchased reagents (Sigma #315-500). […] The absorbance of the dye produced is linearly related to the analyte in the sample. […] Standards (Sigma #339-11, Sigma #16-11, and Sigma #CCO0534 for glucose, triglycerides and total cholesterol, respectively), quality control plasma (Sigma #A2034), and samples (2 or 5 μl/well) are measured in duplicate using 200 μl of reagent. […]

CC(C)OC(=O)C(C)(C)Oc1ccc(C(=O)c2ccc(Cl)cc2)cc1 [fenofibrate]
average total serum cholesterol values: 190 to 280 mg/dL
